Results as given in patent EP0049683A2, “Imidazo-rifamycines, process for their preparation, pharmaceutical preparations containing them and their use” (CIBA-GEIGY AG, priority 1980, dated 1982).
In brackets after ≈: the same amount, converted by molar mass.

What was measured:
[1] = type: physicochemical
Description: Eine Lösung von 0,5 g 3-Dimethylaminomethylenamino-Rifamycin S in 5 ml Methanol wird mit 2 ml einer 10 % (G/V) wässerigen Natriumbicarbonatlösung und 5 ml einer 10 % (G/V) Lösung von K4[Fe(CN)6] Kaliumferrocyanid) in Wasser versetzt, die Lösung 3 Minuten intensiv gerührt und mit je 20 ml Wasser und Chloroform verdünnt. Die Chloroformphase wird abgetrennt und die wässerige Phase noch zweimal mit Chloroform extrahiert. Die vereinigten Chloroformextrakte werden getrocknet und eingedampft, wodurch 3-Dimethylaminomethylenamino-Rifamycin SV als gelbes Pulver resultiert.

[2] = type: physicochemical; remark: listed apart in the source
Description: Eine unter Stickstoff gerührte Suspension von 15,50 g 4-Dimethylamino-imidazolo[4,5-c]rifamycin SV (1) in 150 ml Wasser wird tropfenweise mit 20,0 ml einer 1-N-wässrigen Natriumhydroxid-Lösung (0,987 Aequivalent) versetzt. Die resultierende gelbgefärbte Lösung wird filtriert und das Filtrat der Gefriertrocknung unterworfen. […] Für C40H51N4O11Na (MG 786,85) berechnet 2,92% Na; gefunden 2,87% Na.
Eine gerührte Suspension von 8,75 g 4-(4-Isobutylpiperazinyl)-imidazolo[4,5-c]rifamycin SV (4) in 165 ml Wasser wird mit 10,0 ml 1-normaler wässriger Salzsäure (0,985 Aequivalent) versetzt. Das Gemisch wird filtriert, und das Filtrat der Gefriertrocknung unterworfen. Das erhaltene 4-(4-Isobutylpiperazinyl)-imidazolo[4,5-c]rifamycin SV-Hydrochlorid bildet ein wasserlösliches, gelbes amorphes Pulver. Für C46H63N5O11 · HC1 (898,49) berechnet: 3,95% Cl, gefunden: 4,08% Cl.

[3] = system: Mycobacterium tuberculosis; assay: Agar dilution MIC in DST agar (Ericsson and Sherris); type: cell-based; conditions: Mycobacterium tuberculosis, in vitro, read-out: MIC Myc. tub.
[4] = system: Pseudomonas aeruginosa K 799/61; assay: as above; type: cell-based; conditions: Pseudomonas aeruginosa, K799/61, read-out: MIC Pseu. 799
Method in brief: (§1)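 Agar-incorporation series, in vitro. MIC = lowest conc. still blocking organism growth; units µg/ml.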

[5] = system: Proteus morganii 2359; assay: as above; type: cell-based; conditions: Morganella morganii, 2359, in vitro, read-out: MIC Prot. 2359
Method in brief: as §1

[6] = system: Escherichia coli 205; assay: as above; type: cell-based; conditions: Escherichia coli, 205, in vitro, read-out: MIC Esch. 205
Method in brief: as §1

[7] = system: Proteus morganii 1518; assay: as above; type: cell-based; conditions: Morganella morganii, 1518, in vitro, read-out: MIC Prot. 1518
Method in brief: as §1

[8] = system: Escherichia coli 2018; assay: as above; type: cell-based; conditions: Escherichia coli, 2018, in vitro, read-out: MIC Esch. 2018
Method in brief: as §1

[9] = system: Staphylococcus aureus 10B; assay: as above; type: cell-based; conditions: Staphylococcus aureus, 10B, in vitro, read-out: MIC Staph. 10B
Method in brief: as §1

[10] = system: Staphylococcus aureus 2999; assay: as above; type: cell-based; conditions: Staphylococcus aureus, 2999, in vitro, read-out: MIC Staph. 2999
Method in brief: as §1

[11] = system: Salmonella Typhimurium 277; assay: as above; type: cell-based; conditions: Salmonella enterica, TYPHIMURIUM, in vitro, read-out: MIC Salm. 277
Method in brief: as §1

[12] = system: Enterobacteriaceae, z.B. Escherichia coli, Pseudomonas aeruginosa und Proteus morganii; assay: In vitro antibacterial activity against gram-negative rods; type: cell-based; conditions: within the stated concentration range, 1 bis 64 y/ml
Text: (§2) Die neuen erfindungsgemässen Verbindungen der Formel I zeichnen sich vor allem durch ihre wertvollen pharmakologischen Eigenschaften aus: so besitzen sie gemäss den Resultaten in vitro antibiotische, insbesondere antibakterielle Eigenschaften, wie z.B. einerseits gegen grammpositive Kokken, wie Staphylococcus aureus, (im getesteten Konzentrationsbereich 0,005 bis 128 y/ml),andererseits gegen grammnegative Stäbchenbakterien, wie Enterobacteriaceae, z.B. Escherichia coli, Pseudomonas aeruginosa und Proteus morganii (im getesteten Konzentrationsbereich von 1 bis 64 y/ml), sowie gegen Mycobacterium tuberculosis (im getesteten Konzentrationsbereich von 0,48 bis 1,9 y/ml). […] (Für die Testresultate siehe auch Tabelle -1.)
(§3) Auch die neuen erfindungsgemässen Verbindungen der Formeln V und VI zeichnen sich durch analoge wertvolle pharmakologische Eigenschaften aus, d.h. sie besitzen gemäss den Resultaten in vitro antibiotische, insbesondere antibakterielle Eigenschaften, die sich bezüglich des Anwendungsbereichs sowie der getesteten effektiven Konzentrationen den Verbindungen der Formel I praktisch gleichen. […] (Für die Testresultate siehe auch Tabelle 2.)

[13] = system: Staphylococcus aureus; assay: In vitro antibacterial activity against gram-positive cocci; type: cell-based; conditions: at (at or below) the lowest limit of the tested concentration range, 0,005 y/ml
Text: as §2, §3

Row | Compound | Stabilität beim Stehen in einer Lösung [1] | Löslichkeit in Wasser [2] | MIC [3] | MIC [4] | MIC [5] | MIC [6] | MIC [7] | MIC [8] | MIC [9] | MIC [10] | MIC [11] | Hemmung der Enterobacterien [12] | Hemmwirkung auf Staphylococcus aureus [13]
1 | 3-Dimethylaminomethylenamino-Rifamycin SV [Beispiel 78A] | sehr schnell wieder zum Chinon durch Luftsauerstoffoxidation umgewandelt |  |  |  |  |  |  |  |  |  |  |  | 
2 | 4-Dimethylamino-imidazolo[4,5-c]rifamycin SV-Natriumsalz |  | in Wasser klar lösliches |  |  |  |  |  |  |  |  |  |  | 
3 | COC1C=COC2(C)Oc3c(C)c(O)c4c(O)c(c5[nH]c(N6CCN(CC(C)C)CC6)nc5c4c3C2=O)NC(=O)C(C)=CC=CC(C)C(O)C(C)C(O)C(C)C(OC(C)=O)C1C.Cl (stereo not drawn) [4-(4-Isobutylpiperazinyl)-imidazolo[4,5-c]rifamycin SV-Hydrochlorid] |  | wasserlösliches |  |  |  |  |  |  |  |  |  |  | 
4 | COC1C=COC2(C)Oc3c(C)c(O)c4c(O)c(c5nc(N6CCOCC6)[nH]c5c4c3C2=O)NC(=O)C(C)=CC=CC(C)C(O)C(C)C(O)C(C)C(OC(C)=O)C1C (stereo not drawn) [Verbindung 2, 4-Morpholino-imidazolo[4,5-c]rifamycin SV] |  |  | 1.9 µg/mL (≈ 2.35 µM) | 8 µg/mL (≈ 9.91 µM) | 4 µg/mL (≈ 4.96 µM) | 16 µg/mL (≈ 19.8 µM) | 4 µg/mL (≈ 4.96 µM) | 16 µg/mL (≈ 19.8 µM) | 0.01 µg/mL (≈ 0.0124 µM) | 0.005 µg/mL (≈ 0.0062 µM) | 32 µg/mL (≈ 39.7 µM) | wirksam hemmen | deutliche Hemmwirkung
5 | COC1C=COC2(C)Oc3c(C)c(O)c4c(O)c(c5nc(N6CCN(C)CC6)[nH]c5c4c3C2=O)NC(=O)C(C)=CC=CC(C)C(O)C(C)C(O)C(C)C(OC(C)=O)C1C (stereo not drawn) [Verbindung 3, 4-(4-Methylpiperazinyl)-imidazolo[4,5-c]rifamycin SV] |  |  | 0.97 µg/mL (≈ 1.18 µM) | 4 µg/mL (≈ 4.88 µM) | 16 µg/mL (≈ 19.5 µM) | 16 µg/mL (≈ 19.5 µM) | 16 µg/mL (≈ 19.5 µM) | 16 µg/mL (≈ 19.5 µM) | 0.01 µg/mL (≈ 0.0122 µM) | 0.01 µg/mL (≈ 0.0122 µM) | 32 µg/mL (≈ 39 µM) | wirksam hemmen | deutliche Hemmwirkung
6 | COC1C=COC2(C)Oc3c(C)c(O)c4c(O)c(c5nc(N6CCN(CC(C)C)CC6)[nH]c5c4c3C2=O)NC(=O)C(C)=CC=CC(C)C(O)C(C)C(O)C(C)C(OC(C)=O)C1C (stereo not drawn) [Verbindung 4, 4-(4-Isobutylpiperazinyl)-imidazolo[4,5-c]rifamycin SV] |  |  | 0.97 µg/mL (≈ 1.13 µM) | 8 µg/mL (≈ 9.28 µM) | 4 µg/mL (≈ 4.64 µM) | 4 µg/mL (≈ 4.64 µM) | 4 µg/mL (≈ 4.64 µM) | 4 µg/mL (≈ 4.64 µM) | 0.005 µg/mL (≈ 0.0058 µM) | 0.005 µg/mL (≈ 0.0058 µM) | 8 µg/mL (≈ 9.28 µM) | wirksam hemmen | deutliche Hemmwirkung
